# Source: patent US20150079000A1, “Labelled Quinoxaline Derivatives as Multimodal Radiopharmaceuticals and Their Precursors” (INSTITUT NATIONAL DE LA SANTET DE LA RECHERCHE MEDICALE, priority 2012, published 2015)
# Tests used:
# [1] = tested on: B16 murine melanoma tumours; assay: Ex vivo biodistribution study for compound [125I](1); assay type: in vivo, C57BL/6J mice
# Procedure: Twenty four B16BL6 primary melanoma bearing mice were intravenously injected with 2.2 MBq of [^1251]1 and sacrificed 1 h, 3 h, 6 h, 24 h, 72 h and 10 days after tracer injection (n=4/time point). Tumours and major organs and tissues were promptly excised, harvested, weighted and their radioactivity counted using a calibrated γ-counter with a […] energy window. After radioactive decay correction, results were expressed as percentage of injected dose per gram of tissue (% ID/g).
# [2] = Metabolism of compound [125I](1); assay type: in vivo, mice
# Procedure: 24 primary melanoma bearing mice were intravenously injected with 2.2 MBq of [^1251](1) and sacrificed 1 h, 3 h, 6 h, 24 h, 72 h and 10 days after tracer injection. To determine the metabolic stability of [^1251](1), blood, tumour, eyes, liver, kidney and urine samples were collected at each time point […]. Faeces were collected between 0-24 h and 24-48 h. Blood was immediately diluted in 5 mL of methanol/NH4OH 99.8:0.2 and centrifuged for 5 min at 3,000 rpm. Tumour, eyes, liver, kidneys and faeces were suspended in 5 mL of methanol/NH4OH 99.8:0.2, homogenized using GentleMACS™ dissociator (Miltenyi Biotec, Bergisch Gladbach, Germany) and centrifuged for 5 min at 3,000 rpm (repeated 2 times). Urines were analysed without any treatment. The extraction efficiency was determined by measuring the radioactivity of supernatants and precipitates. Supernatants were passed through a 0.22 μm Millipore filter and then concentrated to a volume between 200 and 500 μL before injection (duplicate) onto the analytical HPLC(C18 column; solvent A: H2O (0.2% NH4OH); solvent B: MeOH (0.2% NH4OH); Gradient elution: 0-5 min: 90 to 70% of A (Q=0.5 mL·min^−1); 5-30 min: 70 to 20% of A (Q=0.9 mL·min^−1); 30-32 min: 10% of A (Q=0.9 mL·min^−1)).
compound,measurement,setting,value
CCN(CCNC(=O)c1cnc2cc([125I])ccc2n1)CCOCCOCCOCCF [[^125I](1)],% ID/g Adipose,[1]; 1 h p.i.,0.61 ± 0.01 % ID/g
same,% ID/g Blood,[1]; 1 h p.i.,0.97 ± 0.07 % ID/g
same,% ID/g Bones,[1]; 1 h p.i.,0.79 ± 0.09 % ID/g
same,% ID/g Brain,[1]; 1 h p.i.,0.27 ± 0.03 % ID/g
same,% ID/g Ceacum,[1]; 1 h p.i.,4.97 ± 3.01 % ID/g
same,% ID/g Colon,[1]; 1 h p.i.,4.51 ± 4.40 % ID/g
same,% ID/g Heart,[1]; 1 h p.i.,1.17 ± 0.07 % ID/g
same,% ID/g Kidney,[1]; 1 h p.i.,4.75 ± 0.71 % ID/g
same,% ID/g Liver,[1]; 1 h p.i.,6.33 ± 1.69 % ID/g
same,% ID/g Lung,[1]; 1 h p.i.,3.12 ± 0.42 % ID/g
same,% ID/g Muscle,[1]; 1 h p.i.,0.55 ± 0.16 % ID/g
same,% ID/g Pancreas,[1]; 1 h p.i.,2.96 ± 0.15 % ID/g
same,% ID/g Skin,[1]; 1 h p.i.,1.04 ± 0.06 % ID/g
same,% ID/g Small intestine,[1]; 1 h p.i.,16.68 ± 10.70 % ID/g
same,% ID/g Spleen,[1]; 1 h p.i.,2.14 ± 0.20 % ID/g
same,% ID/g Stomach,[1]; 1 h p.i.,9.2 ± 1.49 % ID/g
same,% ID/g Testes,[1]; 1 h p.i.,0.68 ± 0.19 % ID/g
same,% ID/g Adipose,[1]; 3 h p.i.,0.36 ± 0.05 % ID/g
same,% ID/g Blood,[1]; 3 h p.i.,0.82 ± 0.05 % ID/g
same,% ID/g Bones,[1]; 3 h p.i.,0.48 ± 0.03 % ID/g
same,% ID/g Brain,[1]; 3 h p.i.,0.15 ± 0.01 % ID/g
same,% ID/g Ceacum,[1]; 3 h p.i.,25.73 ± 7.88 % ID/g
same,% ID/g Colon,[1]; 3 h p.i.,21.19 ± 18.02 % ID/g
same,% ID/g Heart,[1]; 3 h p.i.,0.77 ± 0.05 % ID/g
same,% ID/g Kidney,[1]; 3 h p.i.,3.14 ± 1.27 % ID/g
same,% ID/g Liver,[1]; 3 h p.i.,3.37 ± 0.14 % ID/g
same,% ID/g Lung,[1]; 3 h p.i.,2.14 ± 0.27 % ID/g
same,% ID/g Muscle,[1]; 3 h p.i.,0.30 ± 0.04 % ID/g
same,% ID/g Pancreas,[1]; 3 h p.i.,1.48 ± 0.07 % ID/g
same,% ID/g Skin,[1]; 3 h p.i.,1.34 ± 0.72 % ID/g
same,% ID/g Small intestine,[1]; 3 h p.i.,4.16 ± 0.70 % ID/g
same,% ID/g Spleen,[1]; 3 h p.i.,2.37 ± 2.58 % ID/g
same,% ID/g Stomach,[1]; 3 h p.i.,4.53 ± 0.94 % ID/g
same,% ID/g Testes,[1]; 3 h p.i.,0.54 ± 0.03 % ID/g
same,% ID/g Adipose,[1]; 6 h p.i.,0.19 ± 0.06 % ID/g
same,% ID/g Blood,[1]; 6 h p.i.,0.62 ± 0.20 % ID/g
same,% ID/g Bones,[1]; 6 h p.i.,0.30 ± 0.10 % ID/g
same,% ID/g Brain,[1]; 6 h p.i.,0.08 ± 0.03 % ID/g
same,% ID/g Ceacum,[1]; 6 h p.i.,23.31 ± 16.47 % ID/g
same,% ID/g Colon,[1]; 6 h p.i.,15.92 ± 9.97 % ID/g
same,% ID/g Heart,[1]; 6 h p.i.,0.46 ± 0.17 % ID/g
same,% ID/g Kidney,[1]; 6 h p.i.,1.56 ± 0.82 % ID/g
same,% ID/g Liver,[1]; 6 h p.i.,2.02 ± 0.64 % ID/g
same,% ID/g Lung,[1]; 6 h p.i.,1.04 ± 0.37 % ID/g
same,% ID/g Muscle,[1]; 6 h p.i.,0.17 ± 0.07 % ID/g
same,% ID/g Pancreas,[1]; 6 h p.i.,0.65 ± 0.18 % ID/g
same,% ID/g Skin,[1]; 6 h p.i.,0.62 ± 0.31 % ID/g
same,% ID/g Small intestine,[1]; 6 h p.i.,2.23 ± 1.35 % ID/g
same,% ID/g Spleen,[1]; 6 h p.i.,6.45 ± 8.15 % ID/g
same,% ID/g Stomach,[1]; 6 h p.i.,7.39 ± 4.08 % ID/g
same,% ID/g Testes,[1]; 6 h p.i.,0.36 ± 0.08 % ID/g
same,% ID/g Adipose,[1]; 24 h p.i.,0.028 ± 0.00 % ID/g
same,% ID/g Blood,[1]; 24 h p.i.,0.06 ± 0.01 % ID/g
same,% ID/g Bones,[1]; 24 h p.i.,0.03 ± 0.00 % ID/g
same,% ID/g Brain,[1]; 24 h p.i.,0.01 ± 0.01 % ID/g
same,% ID/g Ceacum,[1]; 24 h p.i.,0.41 ± 0.13 % ID/g
same,% ID/g Colon,[1]; 24 h p.i.,0.69 ± 0.23 % ID/g
same,% ID/g Heart,[1]; 24 h p.i.,0.16 ± 0.06 % ID/g
same,% ID/g Kidney,[1]; 24 h p.i.,0.15 ± 0.02 % ID/g
same,% ID/g Liver,[1]; 24 h p.i.,0.46 ± 0.10 % ID/g
same,% ID/g Lung,[1]; 24 h p.i.,0.08 ± 0.01 % ID/g
same,% ID/g Muscle,[1]; 24 h p.i.,0.02 ± 0.00 % ID/g
same,% ID/g Pancreas,[1]; 24 h p.i.,0.05 ± 0.01 % ID/g
same,% ID/g Skin,[1]; 24 h p.i.,0.17 ± 0.00 % ID/g
same,% ID/g Small intestine,[1]; 24 h p.i.,0.12 ± 0.03 % ID/g
same,% ID/g Spleen,[1]; 24 h p.i.,0.06 ± 0.01 % ID/g
same,% ID/g Stomach,[1]; 24 h p.i.,0.54 ± 0.25 % ID/g
same,% ID/g Testes,[1]; 24 h p.i.,0.03 ± 0.01 % ID/g
same,% ID/g Adipose,[1]; 72 h p.i.,0.02 ± 0.00 % ID/g
same,% ID/g Bones,[1]; 72 h p.i.,0.02 ± 0.01 % ID/g
same,% ID/g Brain,[1]; 72 h p.i.,0.01 ± 0.00 % ID/g
same,% ID/g Ceacum,[1]; 72 h p.i.,0.33 ± 0.29 % ID/g
same,% ID/g Colon,[1]; 72 h p.i.,0.25 ± 0.10 % ID/g
same,% ID/g Heart,[1]; 72 h p.i.,0.08 ± 0.02 % ID/g
same,% ID/g Kidney,[1]; 72 h p.i.,0.24 ± 0.04 % ID/g
same,% ID/g Liver,[1]; 72 h p.i.,0.08 ± 0.00 % ID/g
same,% ID/g Lung,[1]; 72 h p.i.,0.05 ± 0.01 % ID/g
same,% ID/g Muscle,[1]; 72 h p.i.,0.02 ± 0.00 % ID/g
same,% ID/g Pancreas,[1]; 72 h p.i.,0.03 ± 0.01 % ID/g
same,% ID/g Skin,[1]; 72 h p.i.,0.50 ± 0.26 % ID/g
same,% ID/g Small intestine,[1]; 72 h p.i.,0.07 ± 0.03 % ID/g
same,% ID/g Spleen,[1]; 72 h p.i.,0.52 ± 0.96 % ID/g
same,% ID/g Stomach,[1]; 72 h p.i.,0.16 ± 0.05 % ID/g
same,% ID/g Testes,[1]; 72 h p.i.,0.02 ± 0.00 % ID/g
same,% ID/g Adipose,[1]; 10 d p.i.,0.01 ± 0.01 % ID/g
same,% ID/g Bones,[1]; 10 d p.i.,0.01 ± 0.01 % ID/g
same,% ID/g Brain,[1]; 10 d p.i.,0.00 ± 0.00 % ID/g
same,% ID/g Ceacum,[1]; 10 d p.i.,0.02 ± 0.02 % ID/g
same,% ID/g Colon,[1]; 10 d p.i.,0.02 ± 0.01 % ID/g
same,% ID/g Heart,[1]; 10 d p.i.,0.03 ± 0.01 % ID/g
same,% ID/g Kidney,[1]; 10 d p.i.,0.04 ± 0.03 % ID/g
same,% ID/g Liver,[1]; 10 d p.i.,0.01 ± 0.00 % ID/g
same,% ID/g Lung,[1]; 10 d p.i.,0.01 ± 0.01 % ID/g
same,% ID/g Muscle,[1]; 10 d p.i.,0.01 ± 0.06 % ID/g
same,% ID/g Pancreas,[1]; 10 d p.i.,0.02 ± 0.03 % ID/g
same,% ID/g Skin,[1]; 10 d p.i.,0.05 ± 0.06 % ID/g
same,% ID/g Small intestine,[1]; 10 d p.i.,0.01 ± 0.00 % ID/g
same,% ID/g Spleen,[1]; 10 d p.i.,0.23 ± 0.41 % ID/g
same,% ID/g Stomach,[1]; 10 d p.i.,0.03 ± 0.01 % ID/g
same,% ID/g Testes,[1]; 10 d p.i.,0.00 ± 0.00 % ID/g
same,% of radioactivity,"[2]; Blood, 1 h after [125I](1) injection",2.0 ± 2.8%
same,% of radioactivity,"[2]; Blood, 3 h after [125I](1) injection",0.0 ± 0.0%
same,% of radioactivity,"[2]; Blood, 6 h after [125I](1) injection",3.5 ± 4.9%
same,% of radioactivity,"[2]; Eyes, 1 h after [125I](1) injection",90.5 ± 0.7%
same,% of radioactivity,"[2]; Eyes, 3 h after [125I](1) injection",94.5 ± 2.1%
same,% of radioactivity,"[2]; Eyes, 6 h after [125I](1) injection",96.0 ± 5.7%
same,% of radioactivity,"[2]; Eyes, 24 h after [125I](1) injection",90.0 ± 2.8%
same,% of radioactivity,"[2]; Eyes, 72 h after [125I](1) injection",96.5 ± 4.9%
same,% of radioactivity,"[2]; Eyes, 10 d after [125I](1) injection",100.0 ± 0.0%
same,% of radioactivity,"[2]; Feces, (grid: 3 h; faeces collected 24-48 h)",2.5 ± 0.7%
same,% of radioactivity,"[2]; Feces, first value column (grid: 1 h; faeces collected 0-24 h)",5.0 ± 0.0%
same,% of radioactivity,"[2]; Kidney, 1 h after [125I](1) injection",12.5 ± 2.1%
same,% of radioactivity,"[2]; Kidney, 3 h after [125I](1) injection",6.1 ± 2.9%
same,% of radioactivity,"[2]; Kidney, 6 h after [125I](1) injection",0.0 ± 0.0%
same,% of radioactivity,"[2]; Liver, 1 h after [125I](1) injection",27.5 ± 0.7%
same,% of radioactivity,"[2]; Liver, 3 h after [125I](1) injection",24.0 ± 4.2%
same,% of radioactivity,"[2]; Liver, 6 h after [125I](1) injection",8.5 ± 0.7%
same,% of radioactivity,"[2]; Liver, 24 h after [125I](1) injection",0.0 ± 0.0%
same,% of radioactivity,"[2]; Tumour, 1 h after [125I](1) injection",87.0 ± 1.4%
same,% of radioactivity,"[2]; Tumour, 3 h after [125I](1) injection",81.0 ± 1.4%
same,% of radioactivity,"[2]; Tumour, 6 h after [125I](1) injection",77.0 ± 0.0%
same,% of radioactivity,"[2]; Tumour, 24 h after [125I](1) injection",92.5 ± 9.2%
same,% of radioactivity,"[2]; Tumour, 72 h after [125I](1) injection",91.5 ± 3.5%
same,% of radioactivity,"[2]; Tumour, 10 d after [125I](1) injection",100.0 ± 0.0%
same,% of radioactivity,"[2]; Urine, 1 h after [125I](1) injection",12.6 ± 0.5%
same,% of radioactivity,"[2]; Urine, 3 h after [125I](1) injection",0.0 ± 0.0%
same,% of radioactivity,"[2]; Urine, 6 h after [125I](1) injection",0.0 ± 0.0%
same,% of radioactivity,"[2]; Urine, 24 h after [125I](1) injection",0.0 ± 0.0%
same,% of radioactivity,"[2]; Urine, 72 h after [125I](1) injection",0.0 ± 0.0%
